Read-outs that look alike come from different tables or passages of the source.
Columns and labels:
washed platelets = tested on: washed platelets
Protocol: Human blood was collected in ACD (85 mM tri-sodium citrate, 78 mM citric acid, 110 mM D-glucose, pH 4.4) at a ratio of 1.4 ml per 10 ml blood. PRP was isolated by centrifugation at 170 g for 14 minutes and platelets were further pelleted by centrifugation at 1300 g for 6 minutes. Platelets were washed once with 10 ml ACD containing 1 mg/ml bovine serum albumin. Platelets were resuspended at ˜2.5×10^8/ml in Tyrode's Buffer (137 mM NaCl, 2 mM KCl, 1.0 mM MgCl2, 1 mM CaCl2), 5 mM glucose, 20 mM HEPES pH 7.4).

PAR4 = biological target: T1, PAR4 (Homo sapiens, UniProt Q96RI0); experiment: PAR4 FLIPR assay (antagonism of agonist peptide-induced calcium mobilization); format: cell-based
T1 construct: expressed in transfected cells; host or cells: HEK293 PAR4 Clone 1.2A (BMS Arctic ID 383940)
T1 sequence (Q96RI0 18-385): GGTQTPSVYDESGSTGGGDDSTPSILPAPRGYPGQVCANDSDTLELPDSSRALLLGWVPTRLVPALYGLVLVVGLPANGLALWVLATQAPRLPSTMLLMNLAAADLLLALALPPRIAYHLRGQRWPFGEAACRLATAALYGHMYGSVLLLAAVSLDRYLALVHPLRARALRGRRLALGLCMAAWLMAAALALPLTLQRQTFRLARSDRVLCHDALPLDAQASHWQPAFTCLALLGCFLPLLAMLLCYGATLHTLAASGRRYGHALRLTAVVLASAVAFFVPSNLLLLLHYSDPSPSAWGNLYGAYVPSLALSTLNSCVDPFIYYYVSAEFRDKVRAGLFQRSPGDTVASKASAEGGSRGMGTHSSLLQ
Method in brief: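 Antagonism was taken as block of calcium mobilization evoked by the agonist peptide H-Ala-Phe(4-F)-Pro-Gly-Trp-Leu-Val-Lys-Asn-[…]-NH2, added after 30 min room-temperature compound preincubation in dye-loaded PAR4-transfected HEK293 cells (endogenous PAR1). Fluorescence was read on FDSS, with compound addition alone used as the agonist counter-screen; values come from 11-point concentration-response curves.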

[1] = biological target: T2, protease-activated receptor type 4 (PAR4) (Homo sapiens, UniProt Q96RI0); conditions: abstract of J. Med. Chem. 44(22):3746-3749 (2001); cited from earlier work
T2 sequence (Q96RI0 18-385): T1 sequence (Q96RI0 18-385)

PAR1 = biological target: T3, PAR1 (Homo sapiens, UniProt P25116); conditions: ACS patients, TRACER phase III trial; cited from earlier work
T3 construct: in the TRACER phase III trial in ACS patients; host or cells: ACS patients (clinical trial)
T3 sequence (P25116 22-425): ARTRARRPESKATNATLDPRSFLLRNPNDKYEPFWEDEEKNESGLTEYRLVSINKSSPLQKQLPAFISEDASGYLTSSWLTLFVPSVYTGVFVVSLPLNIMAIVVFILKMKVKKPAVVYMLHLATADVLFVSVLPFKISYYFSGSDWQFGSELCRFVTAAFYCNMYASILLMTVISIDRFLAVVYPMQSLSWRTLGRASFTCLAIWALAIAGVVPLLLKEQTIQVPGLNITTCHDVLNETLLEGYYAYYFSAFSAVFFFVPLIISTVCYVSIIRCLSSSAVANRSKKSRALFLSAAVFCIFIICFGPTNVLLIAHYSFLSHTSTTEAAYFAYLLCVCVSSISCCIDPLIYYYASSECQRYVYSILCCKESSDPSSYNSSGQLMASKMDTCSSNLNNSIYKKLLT

| IC50 (PAR4) [nM] | Compound | further results |
| --- | --- | --- |
| 6.4 | Cc1ncc(NC(=O)OC[C@H]2Cc3c(c(F)cc4nc(-c5cc(Cl)cc6cc(OC(F)F)cnc56)sc34)O2)cn1 [Example 273, (R)-(2-(6-chloro-3-(difluoromethoxy)quinolin-8-yl)-5-fluoro-7,8-dihydrobenzofuro[5,4-d]thiazol-7-yl)methyl (2-methylpyrimidin-5-yl)carbamate] | – |
| 2.4 | COc1cnc2c(-c3nc4cc(F)c5c(c4s3)C[C@H](COC(=O)Nc3cnc(C)nc3)O5)cc(F)cc2c1 [Example 280, (R)-(5-fluoro-2-(6-fluoro-3-methoxyquinolin-8-yl)-7,8-dihydrobenzofuro[5,4-d]thiazol-7-yl)methyl (2-methylpyrimidin-5-yl)carbamate] | – |
| 36 | COc1cnc2c(-c3nc4cc(F)c5c(c4s3)C[C@H](CO)O5)cc(Cl)cc2c1 [Example 282, (R)-(2-(6-chloro-3-methoxyquinolin-8-yl)-5-fluoro-7,8-dihydrobenzofuro[5,4-d]thiazol-7-yl)methanol] | – |
| 2.2 | COc1cnc2c(-c3nc4cc(F)c5c(c4s3)C[C@H](COC(=O)Nc3cccnc3)O5)cc(Cl)cc2c1 [Example 283, (R)-(2-(6-chloro-3-methoxyquinolin-8-yl)-5-fluoro-7,8-dihydrobenzofuro[5,4-d]thiazol-7-yl)methyl pyridin-3-ylcarbamate] | – |
| 2.8 | COc1cnc2c(-c3nc4cc(F)c5c(c4s3)C[C@H](COC(=O)Nc3cccc(C(N)=O)c3)O5)cc(Cl)cc2c1 [Example 284, (R)-(2-(6-chloro-3-methoxyquinolin-8-yl)-5-fluoro-7,8-dihydrobenzofuro[5,4-d]thiazol-7-yl)methyl (3-carbamoylphenyl)carbamate] | – |
| 1 | COc1cnc2c(-c3nc4cc(F)c5c(c4s3)C[C@](C)(COC(=O)Nc3cnc(OCCO)nc3)O5)cc(Cl)cc2c1 [Example 286, (R)-(2-(6-chloro-3-methoxyquinolin-8-yl)-5-fluoro-7-methyl-7,8-dihydrobenzofuro[5,4-d]thiazol-7-yl)methyl (2-(2-hydroxyethoxy)pyrimidin-5-yl)carbamate] | – |
| 1.6 | COc1cnc2c(-c3nc4ccc5c(c4s3)OC[C@H](COC(=O)Nc3cnc(OCCO)nc3)O5)cc(Cl)cc2c1 [Example 287, (R)-(2-(6-chloro-3-methoxyquinolin-8-yl)-7,8-dihydro-[1,4]dioxino[2′,3′:3,4]benzo[1,2-d]thiazol-7-yl)methyl (2-(2-hydroxyethoxy)pyrimidin-5-yl)carbamate] | – |

The next lines start with the compound.

| Compound | IC50 (PAR4) [nM] | further results |
| --- | --- | --- |
| C[C@H](N)C(=O)N[C@@H](Cc1ccc(O)cc1)C(=O)N1CCC[C@H]1C(=O)NCC(=O)N[C@@H](CCCCN)C(=O)N[C@@H](Cc1ccccc1)C(=O)O [AYPGKF] | – | EC50 (washed platelets): 12000 nM |
| COc1cnc2c(-c3nc4ccc5c(c4s3)OC[C@H](COC(=O)Nc3cnc(C)nc3)O5)cc(C(F)F)cc2c1 [Example 275, (R)-(2-(6-(difluoromethyl)-3-methoxyquinolin-8-yl)-7,8-dihydro-[1,4]dioxino [2′,3′:3,4]benzo[1,2-d]thiazol-7-yl)methyl (2-methylpyrimidin-5-yl)carbamate] | 12 | – |
| COc1cnc2c(-c3nc4ccc5c(c4s3)OC[C@H](COC(=O)Nc3cnc(C)nc3)O5)cc(CF)cc2c1 [Example 276, (R)-(2-(6-(fluoromethyl)-3-methoxyquinolin-8-yl)-7,8-dihydro-[1,4]dioxino[2′,3′:3,4]benzo[1,2-d]thiazol-7-yl)methyl (2-methylpyrimidin-5-yl)carbamate] | 140 | – |
| COc1cnc2c(-c3nc4c(C(O)C5(C)CCCCC5)cc5c(c4s3)OCCO5)cc(C)cc2n1 (stereo not shown) [Example 278, (2-(2-methoxy-7-methylquinoxalin-5-yl)-7,8-dihydro-[1,4]dioxino[2′,3′:3,4]benzo[1,2-d]thiazol-4-yl)(1-methylcyclohexyl)methanol] | 19 | – |
| COc1cnc2c(-c3nc4c(C(O)C5(C(F)(F)F)CC5)cc5c(c4s3)OCCO5)cc(C)cc2n1 (stereo not shown) [Example 279, (2-(2-methoxy-7-methylquinoxalin-5-yl)-7,8-dihydro-[1,4]dioxino[2′,3′:3,4]benzo[1,2-d]thiazol-4-yl)(1-(trifluoromethyl)cyclopropyl)methanol] | 9.1 | – |
| COc1cnc2c(-c3nc4ccc5c(c4s3)OC[C@H](COC(=O)Nc3cnc(C)nc3)O5)cc(F)cc2c1 [Example 281, (R)-(2-(6-fluoro-3-methoxyquinolin-8-yl)-7,8-dihydro-[1,4]dioxino[2′,3′:3,4]benzo[1,2-d]thiazol-7-yl)methyl (2-methylpyrimidin-5-yl)carbamate] | 9 | – |
| COc1cnc2c(-c3nc4cc(F)c5c(c4s3)C[C@@](C)(CO)O5)cc(Cl)cc2c1 [Example 285, (S)-(2-(6-chloro-3-methoxyquinolin-8-yl)-5-fluoro-7-methyl-7,8-dihydrobenzofuro[5,4-d]thiazol-7-yl)methanol] | 1.5 | – |
| COc1cnc2c(-c3nc4ccc5c(c4s3)OC[C@H](COC(=O)Nc3cnc(OC[C@H](C)O)nc3)O5)cc(Cl)cc2c1 [Example 288, ((R)-2-(6-chloro-3-methoxyquinolin-8-yl)-7,8-dihydro-[1,4]dioxino[2′,3′:3,4]benzo[1,2-d]thiazol-7-yl)methyl (2-((S)-2-hydroxypropoxy)pyrimidin-5-yl)carbamate] | 2.2 | – |
| COc1cnc2c(-c3nc4ccc5c(c4s3)OC[C@H](COC(=O)Nc3cnc(OC[C@@H](C)O)nc3)O5)cc(Cl)cc2c1 [Example 289, ((R)-2-(6-chloro-3-methoxyquinolin-8-yl)-7,8-dihydro-[1,4]dioxino[2′,3′:3,4]benzo[1,2-d]thiazol-7-yl)methyl (2-((R)-2-hydroxypropoxy)pyrimidin-5-yl)carbamate] | 1.8 | – |
| COc1cnc2c(-c3nc4cc(F)c5c(c4s3)[C@H](C)[C@@H](CO)O5)cc(Cl)cc2c1 [Example 290, ((7S,8S)-2-(6-chloro-3-methoxyquinolin-8-yl)-5-fluoro-8-methyl-7,8-dihydrobenzofuro[5,4-d]thiazol-7-yl)methanol] | 0.8 | – |
| COc1cnc2c(-c3nc4cc(F)c5c(c4s3)OC[C@H](CO)O5)cc(C)cc2n1 [Example 291, (S)-(5-fluoro-2-(2-methoxy-7-methylquinoxalin-5-yl)-7,8-dihydro-[1,4]dioxino[2′,3′:3,4]benzo[1,2-d]thiazol-7-yl)methanol] | 59 | – |
| CCOC(=O)c1ccc(-c2nn(Cc3ccccc3)c3ccccc23)cc1 [YD-3, ethyl 4-(1-benzyl-1H-indazol-3-yl)benzoate] | – | Inhibition of PAR4-dependent platelet activation [1]: selective and potent inhibitor |
| CCOC(=O)N[C@@H]1CC[C@@H]2[C@@H](C1)C[C@H]1C(=O)O[C@H](C)[C@H]1[C@H]2/C=C/c1ccc(-c2cccc(F)c2)cn1 [vorapaxar] | – | Cardiovascular events (PAR1): did not significantly reduce; Risk of major bleeding (PAR1): significantly increased |
| (S)-5-fluoro-2-(2-methoxy-7-methylquinoxalin-5-yl)-7-(((2-methylpyrimidin-5-yl)oxy)m ethyl)-7,8-dihydro-[1,4]dioxino[2′,3′:3,4]benzo[1,2-d]thiazole [Example 292] | – | IC50 (PAR4; PAR4-expressing HEK293 cells, calcium mobilization induced by H-Ala-Phe(4-F)-Pro-Gly-Trp-Leu-Val-Lys-Asn-Gly-NH2, 11-point concentration-response curves): 1.1 nM |

From US11932658B2 (BRISTOL-MYERS SQUIBB COMPANY, priority 2016, dated 2024)
